A word on the MIC: it is the smallest concentration in the dilution series that meets the test's criterion for growth inhibition. A low value points to greater potency.

The values that follow come from DBAASP.

Converted amounts (≈) assume the structure as drawn.

Test in all cases: ≥ marks a high value that may be exact or a test limit, other limits are often not marked, values filed in µg/mL are converted to µM
Assay [1] has as its system Escherichia coli DSM 1103.
In assay [2] the test system is Pseudomonas aeruginosa DSM 1117.
Assay [3] concerns Staphylococcus aureus DSM 1104.
In assay [4] the test system is Staphylococcus epidermidis DSM 1798.
Assay [5] has as its system Mycobacterium tuberculosis H37Rv.
The test system of assay [6] is Pseudomonas aeruginosa Ps4.
Assay [7] concerns Bacillus cereus.
Assay [8] concerns Enterococcus faecalis.
In assay [9] the test system is Escherichia coli.
Assay [10] deals with Leuconostoc lactis.
Assay [11] deals with Listeria innocua.
For assay [12], the system named is Micrococcus luteus.
The test system of assay [13] is Pasteurella multocida.
Assay [14] has as its system Staphylococcus aureus.
The subject of assay [15] is Staphylococcus epidermidis.
Assay [16] relates to Streptococcus uberis.
The subject of assay [17] is Corynebacterium glutamicum ATCC 13032.
Assay [18] deals with Escherichia coli ATCC 25922.
Assay [19] relates to Pseudomonas aeruginosa ATCC 27853.
The test system of assay [20] is Staphylococcus aureus ATCC 9144.
In assay [21] the test system is Bacillus cereus ATCC 11778.
For assay [22], the system named is Klebsiella aerogenes ATCC 13048.
In assay [23] the test system is Salmonella enterica subsp. enterica serovar Typhimurium ATCC 14028.
In assay [24] the test system is Staphylococcus aureus ATCC 29213.

`CC[C@H](C)[C@H](NC(=O)CNC(=O)[C@@H](NC(=O)[C@H](C)N)C(C)C)C(=O)NCC(=O)N[C@@H](C)C(=O)N[C@@H](CC(C)C)C(=O)N[C@@H](Cc1ccccc1)C(=O)N[C@@H](CC(C)C)C(=O)NCC(=O)N[C@@H](Cc1ccccc1)C(=O)N[C@@H](CC(C)C)C(=O)NCC(=O)N[C@@H](C)C(=O)N[C@@H](C)C(=O)NCC(=O)N[C@@H](CO)C(=O)N[C@H](C(=O)N[C@@H](CCSC)C(=O)NCC(=O)N[C@@H](C)C(=O)N[C@@H](CCCN=C(N)N)C(=O)N[C@@H](CO)C(N)=O)[C@@H](C)O` [AVGIGALFLGFLGAAGSTMGARS]: the MIC in [1], in [2], in assay [3] and in assay [4] was at least 117 µM in each case.
`CC(C)C[C@H](NC(=O)[C@H](Cc1c[nH]c2ccccc12)NC(=O)[C@H](Cc1c[nH]c2ccccc12)NC(=O)[C@H](CCCN=C(N)N)NC(=O)[C@H](CO)NC(=O)[C@H](CC(C)C)NC(=O)[C@H](CCCCN)NC(=O)[C@H](CCCCN)NC(=O)[C@@H](NC(=O)[C@H](C)N)C(C)C)C(=O)N[C@@H](CCCN=C(N)N)C(=O)N[C@@H](Cc1c[nH]c2ccccc12)C(=O)N[C@@H](Cc1c[nH]c2ccccc12)C(=O)N[C@@H](CCCCN)C(=O)N[C@@H](CCCCN)C(=O)O` [AVKKLSRWWLRWWKK] displayed an MIC in assay [5] of 18.1 µM (≈ 37.5 µg/mL).
In [6], `CC[C@H](C)[C@H](NC(=O)[C@H](CC(N)=O)NC(=O)[C@H](CCCN=C(N)N)NC(=O)[C@H](C)NC(=O)[C@H](Cc1c[nH]c2ccccc12)NC(=O)[C@@H](N)Cc1ccccc1)C(=O)N[C@@H](CCCN=C(N)N)C(=O)N[C@@H](CCCCN)C(=O)N[C@H](C(=O)N[C@@H](CCCN=C(N)N)C(N)=O)C(C)C` [FWARNIRKVR] showed an MIC of at least 186 µM.
On the same count and under the same terms, as for `CC[C@H](C)[C@H](NC(=O)[C@H](CC(N)=O)NC(=O)[C@H](CCCN=C(N)N)NC(=O)[C@H](CC(C)C)NC(=O)[C@H](Cc1c[nH]c2ccccc12)NC(=O)[C@@H](N)Cc1ccccc1)C(=O)N[C@@H](CCCN=C(N)N)C(=O)N[C@@H](CCCCN)C(=O)N[C@H](C(=O)N[C@@H](CCCN=C(N)N)C(N)=O)C(C)C` [FWLRNIRKVR], the figure is at least 180 µM; as for `CC[C@H](C)[C@H](NC(=O)[C@H](CCCN=C(N)N)NC(=O)[C@@H](NC(=O)[C@H](CCCN=C(N)N)NC(=O)[C@H](CCC(N)=O)NC(=O)[C@H](Cc1c[nH]c2ccccc12)NC(=O)[C@@H](N)Cc1ccccc1)[C@@H](C)CC)C(=O)N[C@@H](CCCN=C(N)N)C(=O)N[C@@H](CCCN=C(N)N)C(N)=O` [FWQRIRIRR], at least 188 µM; as for `CC[C@H](C)[C@H](NC(=O)[C@H](CC(N)=O)NC(=O)[C@H](CCCN=C(N)N)NC(=O)[C@H](CCC(N)=O)NC(=O)[C@H](Cc1c[nH]c2ccccc12)NC(=O)[C@@H](N)Cc1ccccc1)C(=O)N[C@@H](CCCN=C(N)N)C(=O)N[C@@H](CCCCN)C(=O)N[C@H](C(=O)N[C@@H](CO)C(N)=O)C(C)C` [FWQRNIRKVS], at least 187 µM.
`CC[C@H](C)[C@H](NC(=O)[C@H](C)NC(=O)[C@@H]1CCCN1C(=O)[C@@H](NC(=O)[C@@H](NC(=O)[C@H](Cc1cnc[nH]1)NC(=O)[C@H](C)NC(=O)[C@H](C)NC(=O)[C@@H](NC(=O)[C@H](CCCCN)NC(=O)[C@H](C)NC(=O)[C@H](CC(C)C)NC(=O)[C@@H](NC(=O)CNC(=O)[C@H](Cc1ccccc1)NC(=O)[C@H](CC(C)C)NC(=O)CN)C(C)C)C(C)C)C(C)C)C(C)C)C(=O)N[C@@H](C)C(=O)N[C@@H](CCC(=O)O)C(=O)N[C@@H](Cc1cnc[nH]1)C(=O)N[C@@H](Cc1ccccc1)C(=O)O` [GLFGVLAKVAAHVVPAIAEHF]: the MIC is at least 46.6 µM in assay [7]; at least 46.6 µM in assay [8]; over 46.6 µM in assay [9]; 23.3 µM (≈ 50 µg/mL) in assay [10]; at least 46.6 µM in [11]; at least 46.6 µM in assay [12]. Moreover, the MIC in assay [13] is at least 46.6 µM; in [14], over 46.6 µM; in [15] it was at least 46.6 µM; in [16], at least 46.6 µM.
On to `CC[C@H](C)[C@H](NC(=O)[C@H](C)NC(=O)CNC(=O)[C@H](C)NC(=O)[C@H](CCCN=C(N)N)NC(=O)[C@H](CO)NC(=O)[C@H](C)NC(=O)[C@H](CCSC)NC(=O)CN)C(=O)N[C@@H](C)C(=O)NCC(=O)N[C@@H](CCCN=C(N)N)C(=O)N[C@H](C(=O)N[C@@H](C)C(=O)N[C@@H](CCCN=C(N)N)C(=O)N[C@H](C(=O)N[C@@H](C)C(=O)N[C@@H](CC(C)C)C(=O)N[C@@H](CCCN=C(N)N)C(=O)N[C@@H](C)C(=O)N[C@@H](CC(C)C)C(N)=O)C(C)C)[C@@H](C)CC` [GMASRAGAIAGRIARVALRAL], for which the MIC in assay [1] is 7 µM (≈ 14.6 µg/mL); in assay [2], at least 113 µM; in assay [3] it was 4 µM (≈ 8.32 µg/mL); in assay [4] it was 2 µM (≈ 4.16 µg/mL).
Consider `CC(C)[C@H](NC(=O)[C@@H](NC(=O)[C@H](CCCN=C(N)N)NC(=O)[C@H](CCCN=C(N)N)NC(=O)[C@H](Cc1c[nH]c2ccccc12)NC(=O)[C@H](Cc1c[nH]c2ccccc12)NC(=O)CN)[C@@H](C)O)C(=O)N[C@@H](CCCN=C(N)N)C(=O)N[C@@H](CCCCN)C(N)=O` [GWWRRTVRK], for which the minimum inhibitory concentration (MIC) in [17] is 3.1 µM (≈ 3.85 µg/mL); in [18], 50 µM (≈ 62.2 µg/mL); in assay [19], 25 µM (≈ 31.1 µg/mL); in assay [20], at least 100 µM.
Take `CC[C@H](C)[C@H](N)C(=O)N[C@@H](CC(C)C)C(=O)NCC(=O)N[C@@H](CCCCN)C(=O)N[C@@H](CC(C)C)C(=O)N[C@@H](Cc1c[nH]c2ccccc12)C(=O)N[C@@H](CCC(=O)O)C(=O)NCC(=O)N[C@@H](CC(C)C)C(=O)N[C@@H](CCCCN)C(=O)N[C@@H](CO)C(=O)N[C@@H](CC(C)C)C(=O)N[C@@H](Cc1ccccc1)C(N)=O` [ILGKLWEGLKSLF]: the MIC in [21] was at least 66.5 µM; in assay [18], 33.2 µM (≈ 50 µg/mL); in assay [22], at least 66.5 µM; in assay [23], 66.5 µM (≈ 99.9 µg/mL); in assay [24] it was 33.2 µM (≈ 50 µg/mL).
As for `CC[C@H](C)[C@H](NC(=O)[C@H](CCCN=C(N)N)NC(=O)CNC(=O)[C@H](C)NC(=O)[C@@H](NC(=O)[C@H](CCCN=C(N)N)NC(=O)[C@H](C)NC(=O)[C@@H](NC(=O)[C@H](CCCN=C(N)N)NC(=O)CNC(=O)[C@H](C)NC(=O)[C@@H](NC(=O)[C@H](CCCN=C(N)N)NC(=O)[C@H](C)NC(=O)[C@@H](NC(=O)[C@H](CCCN=C(N)N)NC(=O)CNC(=O)[C@H](C)NC(=O)[C@@H](NC(=O)[C@@H](N)CCCN=C(N)N)[C@@H](C)CC)[C@@H](C)CC)[C@@H](C)CC)[C@@H](C)CC)[C@@H](C)CC)C(=O)N[C@@H](C)C(N)=O` [RIAGRIARIAGRIARIAGRIA], the minimum inhibitory concentration (MIC) in assay [1] is 6 µM (≈ 13.4 µg/mL); in assay [2] it was 26 µM (≈ 58 µg/mL); in assay [3], 3 µM (≈ 6.69 µg/mL); in assay [4], 2 µM (≈ 4.46 µg/mL).
The like results for `CC(C)C[C@H](NC(=O)[C@H](CCCN=C(N)N)NC(=O)[C@@H](NC(=O)[C@@H]1CCCN1C(=O)[C@@H]1CCCN1C(=O)[C@@H]1CCCN1C(=O)[C@H](CC(C)C)NC(=O)[C@H](CCCN=C(N)N)NC(=O)[C@@H](NC(=O)[C@@H]1CCCN1C(=O)[C@@H]1CCCN1C(=O)[C@@H]1CCCN1C(=O)[C@H](CC(C)C)NC(=O)[C@H](CCCN=C(N)N)NC(=O)[C@@H](N)C(C)C)C(C)C)C(C)C)C(=O)N1CCC[C@H]1C(=O)N1CCC[C@H]1C(=O)N1CCC[C@H]1C(=O)O` [VRLPPPVRLPPPVRLPPP] were, in that order, at least 122 µM, at least 122 µM, at least 122 µM and at least 122 µM.
